Data on two compounds can be found in US9834549B2, “3,3-disubstituted-(8-aza-bicyclo[3.2.1]OCT-8-yl)-[5-(1H-pyrazol-4-yl)-thiophen-3-yl]-methanones as inhibitors of 11 (β)-HSD1” (The University Of Edinburgh, priority 2010, dated 2017).

Data set [1] deals with T1, human 11β-HSD2 (Homo sapiens, UniProt P80365).
T1 construct: CHO cells stably transfected with the full-length gene coding for human 11β-HSD2 were used; expressed in transfected cells; host or cells: CHO (stably transfected)
T1 sequence (P80365 1-405): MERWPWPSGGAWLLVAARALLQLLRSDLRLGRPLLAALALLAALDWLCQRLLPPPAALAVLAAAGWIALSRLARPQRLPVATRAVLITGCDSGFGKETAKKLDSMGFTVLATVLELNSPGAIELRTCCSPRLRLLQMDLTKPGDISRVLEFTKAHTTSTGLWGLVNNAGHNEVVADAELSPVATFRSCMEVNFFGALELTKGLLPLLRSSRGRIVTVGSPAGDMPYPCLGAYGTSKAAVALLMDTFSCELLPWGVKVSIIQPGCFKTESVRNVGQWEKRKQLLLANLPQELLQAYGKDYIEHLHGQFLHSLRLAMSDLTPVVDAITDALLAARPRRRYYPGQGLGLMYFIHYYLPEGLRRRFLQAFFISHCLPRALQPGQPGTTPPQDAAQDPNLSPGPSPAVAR
In words: Cellular in vitro 11β-HSD2 enzyme inhibition assay (CHO cells). It is filed as cell-based. Particulars: CHO cells transfected with human 11β-HSD2. The procedure:
For measurement of inhibition of 11β-HSD2, CHO cells stably transfected with the full-length gene coding for human 11β-HSD2 were used. Assays were carried out in 96-well microplates containing 1×10^5 cells/well. Controls and compounds were plated as above, so that the final DMSO concentration in each well was 1%. To initiate the assay, 90 μL of a solution of HAMS F-12 medium containing 1% glutamine, 1% penicillin and streptomycin, and 22 nM tritiated cortisol was added to each well of the assay plate. The plate was then incubated in 5% CO2, 95% O2 at 37° C. for 16 hours.
The assay solutions were transferred to glass tubes and […] added to each tube. Each tube was vortexed thoroughly and the upper layer containing the tritiated steroid transferred to a fresh glass tube. The solvent was evaporated by placing the tubes in a heating block at 65° C. under a stream of nitrogen gas. 20 μL ethanol was added to each of the dried samples and vortexed briefly. Each sample was applied to a silica TLC plate and the plate dried. The plate was placed vertically in a glass tank containing 92% chloroform: 8% ethanol and the solvent allowed to rise up the plate. The plate was dried, placed in an imaging cassette, and overlayed with a tritium imaging plate for 1-2 days. The amount of enzyme inhibition in each sample was determined by measuring the intensity of the substrate and product spots using a phospho-imager. IC50 values for inhibitors were determined as described above for 11β-HSD1.

Data set [2] in a line: Pharmacokinetics in rat. It is filed as in vivo, male Sprague Dawley rats. Particulars: male, Sprague Dawley, intravenous 1 mg/kg and oral 5 mg/kg; for bioavailability: blood, read-out: % F (% bioavailability); for clearance: plasma, read-out: Cl (plasma clearance). The procedure: The pharmacokinetic parameters of certain compounds were determined following intravenous (1 mg/kg) and oral (5 mg/kg) administration to male Sprague Dawley rats. Dosing solution was prepared by mixing each compound with 2% DMSO, 38% PEG-400 and 60% (0.9%) NaCl. Solutions were passed through 0.2 μm filters prior to administration.
Following dosing and at appropriate time points, blood samples were taken from a lateral tail vein and transferred into a tube pre-treated with EDTA. Blood samples were analysed for parent compound by LCMS and the quantity of parent compound remaining determined. Non-compartmental analysis was applied to the data using WinNonlin™ software to determine the pharmacokinetic parameters for each compound.

Data set [3] in a line: In vitro human liver microsomal stability assay. It counts as in vitro ADME. Particulars: human liver microsomes. The procedure:
To predict in vivo metabolism of compounds, the stability of compounds incubated with human liver microsomes in vitro was determined. Human liver microsome preparations were stored at −80° C. and thawed on ice prior to use. The thawed microsomes were diluted to a concentration of 2 mg/mL in 50 mM sodium phosphate, pH 7.4. Reference and test compounds were prepared as 10 mM stocks in 100% DMSO and diluted to 1 mM in acetonitrile before use. Each compound was tested in triplicate as follows:
4 μL of test or reference compound was added to a well of a 24-well microplate and 0.5 mL of 4 mM NADPH added. The plate was then transferred to a shaker for 10 minutes at room temperature. 30 μL of the compound/NADPH solution was transferred to the well of a 96-well microplate and incubated at 37° C. for 5 minutes. 30 μL of human liver microsomes (pre-incubated at 37° C. for 5 minutes) was added to the well containing the compound/NADPH solution and the plate incubated for the selected period of time (typically 0 or 30 minutes). The reaction was stopped by adding 60 μL of ice cold […] trichloroacetic acid. The plate was centrifuged at 1000 rpm for 5 minutes at room temperature and the supernatant transferred to the well of a new 96-well V-bottomed microplate for mass spectrometric analysis.
Samples were analyzed by TSQ Quantum Discovery Tandem Mass Spectrometer and Surveyor Liquid Chromatogram (Thermo, Hemel-Hempstead, UK). 10 μL of each sample was injected in a mobile phase consisting of 60%:40% methanol:5 mM ammonium acetate at a flow rate of 0.5 mL/minute. The column used was a BDS hypersil, C18, 50×2.1 mm with a 5 μm particle size.
Each compound was tuned with a spray voltage of 3000 V and a capillary temperature of 300° C. and values for tube lens, CID and product ions were determined.
The peak area for each compound was measured in triplicate for the 0 and 30 minute samples and the average of each was reported. The percentage remaining after 30 minutes was calculated as the average peak area of the sample after 30 minutes divided by the average peak area at 0 minutes. The RSD was 10% or lower for each compound.

pIC50: −log10 of the molar value.

Turning to `O=C(c1csc(-c2cn[nH]c2)c1)N1C2CCC1CC(O)(c1nccs1)C2` (centres unmarked) [XX-29], in data set [1], the negative-log IC50 (pIC50) is below 5.00. In addition, in data set [2], the bioavailability was in the range of 41 to 100% and the clearance is below 25 mL/min/kg. In data set [3], the “% Parent Remaining at 30 min” value is listed as “+++ (61-100% +++)”.
The matching figures for `O=C(c1csc(-c2cn[nH]c2)c1)N1C2CCC1CC(O)(c1ncccn1)C2` (centres unmarked) [XX-20, (3-Hydroxy-3-pyrimidin-2-yl-8-aza-bicyclo[3.2.1]oct-8-yl)-[5-(1H-pyrazol-4-yl)-thiophen-3-yl]-methanone]: below 5.00, 41 to 100%, below 25 mL/min/kg and “+++ (61-100% +++)”.
